In US7132540B1, “Hindered spiro-ketal nitroxides” (Nova Molecular Technologies Inc., priority 2001, dated 2006):

Columns and labels:
[1] = Polymerization of acrylonitrile at 70° C. with benzoyl peroxide in the presence of nitroxide inhibitors; conditions: acrylonitrile 10 ml, benzoyl peroxide 0.35 g, inhibitor 0.1 g (0.1 ml for 6), water bath 70° C.
Procedure: (§1) Testing was done to determine the effectiveness of various nitroxides in inhibiting the polymerization of various vinyl monomers.
(§2) A sample of vinyl monomer (10 ml) was placed in an open 25 ml test tube. To each tube benzoyl peroxide (0.35 g) and 0.1 g of nitroxide inhibitor was added, then the tubes were placed in a water bath maintained by a thermostat at 70° C. The selected vinyl monomers polymerize under these conditions without nitroxide inhibitors within a few minutes.
(§3) Vinyl monomers: acrylonitrile, vinyl acetate and methyl acrylate.
Polymerization of Acrylonitrile at 70° C. in the presence of Nitroxide Inhibitors.

[2] = Polymerization of methyl acrylate at 70° C. with benzoyl peroxide in the presence of nitroxide inhibitors; conditions: methyl acrylate 10 ml, benzoyl peroxide 0.35 g, inhibitor 0.1 g (0.1 ml for 6), water bath 70° C.
Procedure: as §1, §2, §3
Polymerization of Methyl Acrylate at 70° C. in the presence of Nitroxide Inhibitors.

[3] = Polymerization of vinyl acetate at 70° C. with benzoyl peroxide in the presence of nitroxide inhibitors; conditions: vinyl acetate 10 ml, benzoyl peroxide 0.35 g, inhibitor 0.1 g (0.1 ml for 6), water bath 70° C.
Procedure: as §1, §2, §3
Polymerization of Vinyl Acetate at 70° C. in the presence of Nitroxide Inhibitors.

SMILES | Inhibition Time [1] | Inhibition Time [2] | Inhibition Time [3]
CC1(C)CC2(CC(C)(C)N1[O])OCCCO2 [Example 1, 1,5-dioxa-9-aza-8,8,10,10-tetramethylspiro[5,5]undec-9-yloxy] | 40 min | 165 min | 205 min
CC1(C)CCCC(C)(C)N1O [Inhibitor 5] | 60 min | 180 min | 385 min
COC1CC(C)(C)N(O)C(C)(C)C1 [Inhibitor 3] | 305 min | >300 min | >300 min
CC1(C)CC2(CC(C)(C)N1[O])OCCCO2 [Example 2, 1,5-dioxa-9-aza-8,8,10,10 tetramethylspiro[5,5]undec-9-yloxy] | 60 min | 166 min | 145 min
